pEC50: −log10 of the molar value.
System: UoC-B1
Assay: Antiproliferative activity against human UOCB1 cells after 72 hrs by CelTiter-Glo assay
Type: functional, cell-based
Conditions: UoC-B1, 72 h

Structure (SMILES) | pEC50
COC(=O)c1cc(=O)c2cc(NC(=O)Nc3cc(OC)c(OC)c(OC)c3)ccc2[nH]1 | < 4.36
COC(=O)c1cc(=O)c2cc(NC(=O)NC3c4ccccc4-c4ccccc43)ccc2[nH]1 | < 4.92
COc1cc(OC)c2c(=O)cc(C(=O)Nc3ccc(Oc4cccnc4)cc3)[nH]c2c1 | 4.56
COC(=O)c1cc(=O)c2cc(NC(=O)Nc3ccc4c(c3)OCCO4)ccc2[nH]1 | < 4.88
COc1cc(OC)c2c(=O)cc(C(=O)Nc3cccc(-n4ccnc4)c3)[nH]c2c1 | < 4.79
COc1cc(OC)c2c(=O)cc(C(=O)Nc3ccc(N4CCN(C)CC4)cc3)[nH]c2c1 | < 4.70
COC(=O)c1cc(=O)c2cc(N)ccc2[nH]1 | < 4.47
COc1cc(OC)c2c(=O)cc(C(=O)Nc3ccc4oc(-c5ccc(F)cc5)nc4c3)[nH]c2c1 | < 4.43
COc1cc(OC)c2c(=O)cc(C(=O)Nc3ccc(-n4cccc4)cc3)[nH]c2c1 | 4.29
COc1cc(OC)c2c(=O)cc(C(=O)Nc3cccc(-c4nccs4)c3)[nH]c2c1 | < 4.27
CCOC(=O)[C@H](Cc1ccccc1)NC(=O)Nc1ccc2[nH]c(C(=O)OC)cc(=O)c2c1 | < 4.86
COC(=O)c1cc(=O)c2cc(NC(=O)N[C@@H](C)c3cccc(OC)c3)ccc2[nH]1 | < 4.60

System: KOPN-8
Assay: Antiproliferative activity against human KOPN8 cells after 72 hrs by CelTiter-Glo assay
Type: functional, cell-based
Conditions: KOPN-8, 72 h

Structure (SMILES) | pEC50
COC(=O)c1cc(=O)c2cc(NC(=O)Nc3cc(OC)c(OC)c(OC)c3)ccc2[nH]1 | < 4.36
COC(=O)c1cc(=O)c2cc(NC(=O)NC3c4ccccc4-c4ccccc43)ccc2[nH]1 | < 4.92
COc1cc(OC)c2c(=O)cc(C(=O)Nc3ccc(Oc4cccnc4)cc3)[nH]c2c1 | < 4.49
COC(=O)c1cc(=O)c2cc(NC(=O)Nc3ccc4c(c3)OCCO4)ccc2[nH]1 | < 4.88
COc1cc(OC)c2c(=O)cc(C(=O)Nc3cccc(-n4ccnc4)c3)[nH]c2c1 | < 4.79
COc1cc(OC)c2c(=O)cc(C(=O)Nc3ccc(N4CCN(C)CC4)cc3)[nH]c2c1 | < 4.70
COC(=O)c1cc(=O)c2cc(N)ccc2[nH]1 | < 4.47
COc1cc(OC)c2c(=O)cc(C(=O)Nc3ccc4oc(-c5ccc(F)cc5)nc4c3)[nH]c2c1 | < 4.43
COc1cc(OC)c2c(=O)cc(C(=O)Nc3ccc(-n4cccc4)cc3)[nH]c2c1 | < 4.11
COc1cc(OC)c2c(=O)cc(C(=O)Nc3cccc(-c4nccs4)c3)[nH]c2c1 | < 4.27
CCOC(=O)[C@H](Cc1ccccc1)NC(=O)Nc1ccc2[nH]c(C(=O)OC)cc(=O)c2c1 | < 4.86
COC(=O)c1cc(=O)c2cc(NC(=O)N[C@@H](C)c3cccc(OC)c3)ccc2[nH]1 | < 4.60

System: SUP-B15
Assay: Antiproliferative activity against human SUP-B15 cells after 72 hrs by CelTiter-Glo assay
Type: functional, cell-based
Conditions: SUP-B15, 72 h

Structure (SMILES) | pEC50
COC(=O)c1cc(=O)c2cc(NC(=O)Nc3cc(OC)c(OC)c(OC)c3)ccc2[nH]1 | < 4.06
COC(=O)c1cc(=O)c2cc(NC(=O)NC3c4ccccc4-c4ccccc43)ccc2[nH]1 | < 4.62
COc1cc(OC)c2c(=O)cc(C(=O)Nc3ccc(Oc4cccnc4)cc3)[nH]c2c1 | < 4.49
COC(=O)c1cc(=O)c2cc(NC(=O)Nc3ccc4c(c3)OCCO4)ccc2[nH]1 | < 4.58
COc1cc(OC)c2c(=O)cc(C(=O)Nc3cccc(-n4ccnc4)c3)[nH]c2c1 | < 4.79
COc1cc(OC)c2c(=O)cc(C(=O)Nc3ccc(N4CCN(C)CC4)cc3)[nH]c2c1 | < 4.70
COC(=O)c1cc(=O)c2cc(N)ccc2[nH]1 | < 4.17
COc1cc(OC)c2c(=O)cc(C(=O)Nc3ccc4oc(-c5ccc(F)cc5)nc4c3)[nH]c2c1 | < 4.43
COc1cc(OC)c2c(=O)cc(C(=O)Nc3ccc(-n4cccc4)cc3)[nH]c2c1 | < 4.11
COc1cc(OC)c2c(=O)cc(C(=O)Nc3cccc(-c4nccs4)c3)[nH]c2c1 | < 4.27
CCOC(=O)[C@H](Cc1ccccc1)NC(=O)Nc1ccc2[nH]c(C(=O)OC)cc(=O)c2c1 | 4.78
COC(=O)c1cc(=O)c2cc(NC(=O)N[C@@H](C)c3cccc(OC)c3)ccc2[nH]1 | < 4.60

System: HepG2
Assay: Antiproliferative activity against human HepG2 cells after 72 hrs by CelTiter-Glo assay
Type: functional, cell-based
Conditions: HepG2, 72 h

Structure (SMILES) | pEC50
COC(=O)c1cc(=O)c2cc(NC(=O)Nc3cc(OC)c(OC)c(OC)c3)ccc2[nH]1 | < 4.36
COC(=O)c1cc(=O)c2cc(NC(=O)NC3c4ccccc4-c4ccccc43)ccc2[nH]1 | < 4.92
COc1cc(OC)c2c(=O)cc(C(=O)Nc3ccc(Oc4cccnc4)cc3)[nH]c2c1 | < 4.49
COC(=O)c1cc(=O)c2cc(NC(=O)Nc3ccc4c(c3)OCCO4)ccc2[nH]1 | < 4.88
COc1cc(OC)c2c(=O)cc(C(=O)Nc3cccc(-n4ccnc4)c3)[nH]c2c1 | < 4.79
COc1cc(OC)c2c(=O)cc(C(=O)Nc3ccc(N4CCN(C)CC4)cc3)[nH]c2c1 | < 4.70
COC(=O)c1cc(=O)c2cc(N)ccc2[nH]1 | < 4.47
COc1cc(OC)c2c(=O)cc(C(=O)Nc3ccc4oc(-c5ccc(F)cc5)nc4c3)[nH]c2c1 | < 4.43
COc1cc(OC)c2c(=O)cc(C(=O)Nc3ccc(-n4cccc4)cc3)[nH]c2c1 | < 4.11
COc1cc(OC)c2c(=O)cc(C(=O)Nc3cccc(-c4nccs4)c3)[nH]c2c1 | < 4.27
CCOC(=O)[C@H](Cc1ccccc1)NC(=O)Nc1ccc2[nH]c(C(=O)OC)cc(=O)c2c1 | < 4.86
COC(=O)c1cc(=O)c2cc(NC(=O)N[C@@H](C)c3cccc(OC)c3)ccc2[nH]1 | < 4.60

System: SEM cells
Assay: Antiproliferative activity against human SEM cells after 72 hrs by CelTiter-Glo assay
Type: functional, cell-based
Conditions: not given

Structure (SMILES) | pEC50
COC(=O)c1cc(=O)c2cc(NC(=O)Nc3cc(OC)c(OC)c(OC)c3)ccc2[nH]1 | < 4.36
COC(=O)c1cc(=O)c2cc(NC(=O)NC3c4ccccc4-c4ccccc43)ccc2[nH]1 | < 4.92
COc1cc(OC)c2c(=O)cc(C(=O)Nc3ccc(Oc4cccnc4)cc3)[nH]c2c1 | < 4.49
COC(=O)c1cc(=O)c2cc(NC(=O)Nc3ccc4c(c3)OCCO4)ccc2[nH]1 | < 4.88
COc1cc(OC)c2c(=O)cc(C(=O)Nc3cccc(-n4ccnc4)c3)[nH]c2c1 | < 4.79
COc1cc(OC)c2c(=O)cc(C(=O)Nc3ccc(N4CCN(C)CC4)cc3)[nH]c2c1 | < 4.70
COC(=O)c1cc(=O)c2cc(N)ccc2[nH]1 | < 4.47
COc1cc(OC)c2c(=O)cc(C(=O)Nc3ccc4oc(-c5ccc(F)cc5)nc4c3)[nH]c2c1 | < 4.43
COc1cc(OC)c2c(=O)cc(C(=O)Nc3ccc(-n4cccc4)cc3)[nH]c2c1 | < 4.11
COc1cc(OC)c2c(=O)cc(C(=O)Nc3cccc(-c4nccs4)c3)[nH]c2c1 | < 4.27
CCOC(=O)[C@H](Cc1ccccc1)NC(=O)Nc1ccc2[nH]c(C(=O)OC)cc(=O)c2c1 | < 4.86
COC(=O)c1cc(=O)c2cc(NC(=O)N[C@@H](C)c3cccc(OC)c3)ccc2[nH]1 | < 4.60

System: BJ
Assay: Antiproliferative activity against human BJ cells after 72 hrs by CelTiter-Glo assay
Type: cell-based
Conditions: not given

Structure (SMILES) | pEC50
COC(=O)c1cc(=O)c2cc(NC(=O)Nc3cc(OC)c(OC)c(OC)c3)ccc2[nH]1 | < 4.06
COC(=O)c1cc(=O)c2cc(NC(=O)NC3c4ccccc4-c4ccccc43)ccc2[nH]1 | < 4.62
COc1cc(OC)c2c(=O)cc(C(=O)Nc3ccc(Oc4cccnc4)cc3)[nH]c2c1 | < 4.49
COC(=O)c1cc(=O)c2cc(NC(=O)Nc3ccc4c(c3)OCCO4)ccc2[nH]1 | < 4.58
COc1cc(OC)c2c(=O)cc(C(=O)Nc3cccc(-n4ccnc4)c3)[nH]c2c1 | < 4.79
COc1cc(OC)c2c(=O)cc(C(=O)Nc3ccc(N4CCN(C)CC4)cc3)[nH]c2c1 | < 4.70
COC(=O)c1cc(=O)c2cc(N)ccc2[nH]1 | < 4.17
COc1cc(OC)c2c(=O)cc(C(=O)Nc3ccc4oc(-c5ccc(F)cc5)nc4c3)[nH]c2c1 | < 4.43
COc1cc(OC)c2c(=O)cc(C(=O)Nc3ccc(-n4cccc4)cc3)[nH]c2c1 | < 4.11
COc1cc(OC)c2c(=O)cc(C(=O)Nc3cccc(-c4nccs4)c3)[nH]c2c1 | < 4.27
CCOC(=O)[C@H](Cc1ccccc1)NC(=O)Nc1ccc2[nH]c(C(=O)OC)cc(=O)c2c1 | < 4.56
COC(=O)c1cc(=O)c2cc(NC(=O)N[C@@H](C)c3cccc(OC)c3)ccc2[nH]1 | < 4.60

Reference: ChEMBL document CHEMBL4196009, “Novel vitexin-inspired scaffold against leukemia” (Eur J Med Chem, 2018)
